For experiment [1], the system named is A-375. Kind of experiment: Antiproliferative activity against human A-375 cells assessed as reduction in cell growth incubated for 48 hrs by MTT assay. The note with it: A-375, 48 h. It counts as functional, cell-based. A general note: Formazan colour is commonly taken as a measure of viable cells.
Experiment [2] concerns MeWo. Kind of experiment: Antiproliferative activity against human MeWo cells assessed as reduction in cell growth incubated for 48 hrs by MTT assay. The class given is functional, cell-based.
For experiment [3], the system named is KYSE-270. Kind of experiment: Cytotoxicity against human KYSE-270 cells assessed as reduction in cell viability incubated for 72 hrs by MTS assay. The class given is functional, cell-based. The note with it: KYSE-270, 72 h.
For experiment [4], the system named is KYSE-70 cell line. Kind of experiment: Cytotoxicity against human KYSE-70 cells assessed as reduction in cell viability incubated for 72 hrs by MTS assay. The note with it: KYSE-70, 72 h. It counts as functional, cell-based.
Experiment [5] deals with HeLa. Kind of experiment: Antiproliferative activity against human HeLa cells assessed as reduction in cell viability incubated for 72 hrs by MTT assay. The class given is functional, cell-based.
Experiment [6] has as its system HepG2. The experiment in a line: Cytotoxicity against human HepG2 cells assessed as reduction in cell growth incubated for 72 hrs by MTT assay. The class given is functional, cell-based. The note with it: HepG2, 72 h.
Experiment [7] relates to HCT-116. Kind of experiment: Cytotoxicity against human HCT-116 cells assessed as reduction in cell growth incubated for 72 hrs by MTT assay. It counts as functional, cell-based. The note with it: HCT-116, 72 h.
Experiment [8] relates to HL-60. Kind of experiment: Cytotoxicity against human HL-60 cells assessed as reduction in cell growth incubated for 72 hrs by MTT assay. It counts as functional, cell-based. The note with it: HL-60, 72 h.
Experiment [9] concerns SF-295. Kind of experiment: Cytotoxicity against human SF-295 cells assessed as reduction in cell growth incubated for 72 hrs by MTT assay. The note with it: SF-295, 72 h. It counts as functional, cell-based.
The subject of experiment [10] is PC-3. The experiment in a line: Cytotoxicity against human PC-3 cells assessed as reduction in cell growth incubated for 72 hrs by MTT assay. It counts as functional, cell-based. The note with it: PC-3, 72 h.
Experiment [11] has as its system MCF7. The experiment in a line: Cytotoxicity against human MCF7 cells assessed as reduction in cell viability. The class given is functional, cell-based.
Experiment [12] has as its system Calu-3. The experiment in a line: Cytotoxicity against human Calu-3 cells assessed as reduction in cell viability. The class given is functional, cell-based.
For experiment [13], the system named is HCT-116. The experiment in a line: Cytotoxicity against human HCT-116 cells assessed as reduction in cell viability incubated for 48 hrs by SRB assay. The class given is functional, cell-based. The note with it: HCT-116, 48 h. Background: The SRB assay estimates cell density from bound dye.
For experiment [14], the system named is MCF7. Kind of experiment: Cytotoxicity against human MCF7 cells. The class given is functional, cell-based.
The test system of experiment [15] is HepG2. Kind of experiment: Cytotoxicity against human HepG2 cells. It counts as functional, cell-based.
Experiment [16] concerns A549. Kind of experiment: Cytotoxicity against human A549 cells assessed as reduction in cell growth incubated for 48 hrs by MTT assay. The class given is functional, cell-based. The note with it: A549, 48 h.
The subject of experiment [17] is HL-60. The experiment in a line: Growth inhibition of human HL-60 cells. The class given is functional.
Experiment [18] concerns SK-BR-3. The experiment in a line: Antiproliferative activity against human SK-BR-3 cells assessed as reduction in cell viability incubated for 24 hrs by alamar blue assay. It counts as functional, cell-based. The note with it: SK-BR-3, 24 h. (In general: Resazurin is reduced to fluorescent resorufin, in cell work by metabolically active cells.)
For experiment [19], the target named is Cytochrome P450 1A1 (Homo sapiens, UniProt P04798). The experiment in a line: Inhibition of CYP1A1 (unknown origin) expressed in HEK293 cells. It counts as ADME, cell-based.
Sequence of Cytochrome P450 1A1 (P04798 whole entry): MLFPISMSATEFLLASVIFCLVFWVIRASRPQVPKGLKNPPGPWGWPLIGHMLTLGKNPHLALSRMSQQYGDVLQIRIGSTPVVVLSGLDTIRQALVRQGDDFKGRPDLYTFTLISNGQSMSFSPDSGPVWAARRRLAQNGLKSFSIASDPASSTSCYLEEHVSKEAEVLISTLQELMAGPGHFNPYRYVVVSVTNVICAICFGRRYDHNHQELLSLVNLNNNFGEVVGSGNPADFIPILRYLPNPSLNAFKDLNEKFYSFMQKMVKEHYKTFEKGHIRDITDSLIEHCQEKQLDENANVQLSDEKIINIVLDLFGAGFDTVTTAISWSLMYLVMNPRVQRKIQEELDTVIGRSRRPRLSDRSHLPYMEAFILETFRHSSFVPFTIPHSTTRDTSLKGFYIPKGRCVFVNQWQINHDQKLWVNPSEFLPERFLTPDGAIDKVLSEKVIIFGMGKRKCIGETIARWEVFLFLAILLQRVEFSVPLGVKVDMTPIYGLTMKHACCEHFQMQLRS
The nature of experiment [20]: Selectivity index, ratio of IC50 for inhibition of CYP1B1 (unknown origin) to IC50 for inhibition of CYP1A1 (unknown origin).
Experiment [21] has as its system MCF7. Kind of experiment: Cytotoxicity against human MCF7 cells assessed as reduction in cell growth incubated for 72 hrs by MTT assay. The class given is functional, cell-based. The note with it: MCF7, 72 h.
The test system of experiment [22] is SK-MEL-28. The experiment in a line: Cytotoxicity against human SK-MEL-28 cells assessed as reduction in cell growth incubated for 24 hrs by MTT assay. The class given is functional.
In experiment [23] the test system is MOLT-4. The experiment in a line: Antiproliferative activity against human MOLT-4 cells assessed as reduction in cell viability measured for 48 hrs by WST-1 assay. The class given is functional, cell-based. The note with it: MOLT-4, 48 h.
In experiment [24] the test system is HeLa. The experiment in a line: Antiproliferative activity against human Hela cells assessed as reduction in cell viability measured for 48 hrs by WST-1 assay. It counts as functional, cell-based.
In experiment [25] the test system is MCF7. Kind of experiment: Antiproliferative activity against human MCF7 cells assessed as reduction in cell viability measured for 48 hrs by WST-1 assay. The class given is functional, cell-based. The note with it: MCF7, 48 h.
The subject of experiment [26] is HT-29. The experiment in a line: Antiproliferative activity against human HT-29 cells assessed as reduction in cell viability measured for 48 hrs by WST-1 assay. The class given is functional, cell-based. The note with it: HT-29, 48 h.
Experiment [27] has as its system A549. Kind of experiment: Antiproliferative activity against human A549 cells assessed as reduction in cell viability measured for 48 hrs by WST-1 assay. The class given is functional, cell-based. The note with it: A549, 48 h.
The subject of experiment [28] is HCT-116. Kind of experiment: Antiproliferative activity against human HCT-116 cells assessed as reduction in cell viability incubated for 24 hrs by MTT assay. The note with it: HCT-116, 24 h. It counts as functional, cell-based.
For experiment [29], the system named is A2780. The experiment in a line: Antiproliferative activity against human A2780 cells assessed as reduction in cell viability incubated for 48 hrs by MTT assay. The class given is functional, cell-based. The note with it: A2780, 48 h.
Experiment [30] deals with SK-OV-3. The experiment in a line: Antiproliferative activity against human SK-OV-3 cells assessed as reduction in cell viability incubated for 48 hrs by MTT assay. It counts as functional, cell-based. The note with it: SK-OV-3, 48 h.
In experiment [31] the test system is MCF7. The experiment in a line: Cytotoxicity against human MCF7 cells assessed as reduction in cell viability incubated for 48 hrs by MTT assay. The class given is functional, cell-based. The note with it: MCF7, 48 h.
Experiment [32] deals with MCF7. The experiment in a line: Inhibition of colony formation in human MCF7 cells at 100 microM measured after 72 hrs by crystal violet staining based analysis relative to control. It counts as functional.

Here are results for 17 compounds from ChEMBL document CHEMBL6177938, “Semisynthetic phytochemicals in cancer treatment: a medicinal chemistry perspective” (RSC Med Chem, 2024).

The IC50 is the concentration that gives 50% inhibition. For the compound `CC1(C)CC[C@]2(C(=O)N3CCOCC3)CC[C@]3(C)C(=CC[C@@H]4[C@@]5(C)CC/C(=N\OC(=O)CBr)C(C)(C)[C@@H]5CC[C@]43C)[C@@H]2C1`, the half-inhibitory concentration (IC50) in [1] and in experiment [2] was 100 µM in each case. On to `CCCCCCCCCCCC(=O)O[C@H]1C(C)=C[C@]23C(=O)[C@@H](C=C(CO)[C@@H](O)[C@]12O)[C@H]1[C@@H](C[C@H]3C)C1(C)C`, for which the values for the IC50 in experiment [3] and in experiment [4] were 1.88 µM and 3.58 µM, respectively. On to `CCNC(=O)CC[C@H](NC(=O)c1cc2cc(Br)ccc2oc1=O)C(=O)OCC`, for which the IC50 in [5] worked out at 250 µM.

Turning to `CCC(=O)OCC(=O)[C@@]1(C)CC[C@H]2C(=C[C@@H]3OC(=O)[C@@]4(C)[C@@H]3[C@]23CC[C@]4(O)OC3)C1`, the IC50 worked out at 13.5 µM in [6]; 3.62 µM in experiment [7]; 3.14 µM in [8]; 3.59 µM in [9]; 3.2 µM in [10]. With `Cn1c2ccccc2c(=O)c2c(OCCCOc3cc4c(c5c3c(=O)c3ccccc3n5C)C=CC(C)(C)O4)cc3c(c21)C=CC(C)(C)O3`, the IC50 in experiment [11] was determined as 13.2 µM; in [12], 4.49 µM.

`C[C@H]1CC[C@@H]2[C@@H](OC(=O)[C@]23C[C@H]2CCCN2C32C(=O)c3ccccc3C2=O)[C@]2(C)C(=O)C=C[C@@]12O`: the IC50 in experiment [13] was 5 µM. Consider `C/C(=N\NC(=O)c1ccc(O)cc1)c1ccc(NC(=O)Cn2c(=O)c3c(ncn3C)n(C)c2=O)cc1`, for which the figures for the IC50 in [14] and in experiment [15] were 0.42 µM and 0.22 µM, respectively. In the case of `COc1ccc(CC(=O)OCC2=CC[C@@H]3[C@](C)(CO)[C@H](O)CC[C@@]3(C)[C@@H]2/C=C/C2=CCOC2=O)cc1`, the IC50 in experiment [16] came out at 3.5 µM. In general, GI50 refers to the concentration that inhibits growth by half. Low values mean more potent growth inhibition, high ones less potent growth inhibition. For the compound `COc1cc(/C=C/c2cc(/C=C/c3ccc(O)c(OC)c3)n(-c3c(Cl)cccc3Cl)c(=O)n2)ccc1O`, the concentration for 50% growth inhibition (GI50) in experiment [17] stood at 2.64 µM. This lies in the single-digit micromolar range. For `COc1ccc2c(CCCc3ccc(Cl)cc3Cl)c3[n+](cc2c1OC)CCc1cc2c(cc1-3)OCO2`, the IC50 in experiment [18] was determined as 6.3 µM. In [19], `COc1c2occc2c(OC)c2c(=O)cc(-c3ccc(F)c(Br)c3)oc12` came in with an IC50 of 0.14 µM. The Ratio IC50 in experiment [20] was 170.

On to `C[C@@H]1CC[C@H]2[C@@H](C)C(OC(=O)CCC(=O)O)O[C@@H]3O[C@@]4(C)CC[C@@H]1[C@]32OO4` (single isomer, unassigned), for which, in experiment [21], the IC50 came to 43.8 µM. As a reminder, the CC50 is the concentration giving 50% cytotoxicity. For the compound `CC(=O)OCC1=C2[C@@H](OC(C)=O)C[C@@](C)(OC(C)=O)C(=O)CC[C@@]3(C)O[C@@H]3[C@@]2(OC(C)=O)OC1=O`, in experiment [22], the CC50 amounted to 3.1 µM.

Take `COc1c2c(cc3c1OCO3)[C@]13C=C[C@H](OC)C[C@H]1N(C2)C[C@H]3OC(=O)c1ccc(Cl)c([N+](=O)[O-])c1`: the IC50 in [23] amounted to 1.9 µM; in experiment [24] it was 0.7 µM; in [25], 0.6 µM; in [26], 1.4 µM; in [27], 0.8 µM.

In the case of `CN1CCN(CCCOc2cc(-c3oc4cc(O)cc(O)c4c(=O)c3O)ccc2O)CC1`, in [28], the IC50 worked out at 0.48 µM. In the case of `CC1=C(O)C(=O)C=C2C1=CC=C1[C@@]2(C)CC[C@@]2(C)[C@@H]3C[C@](C)(C(=O)N4CCN(C(C)C)CC4)CC[C@]3(C)CC[C@]12C`, the IC50 in experiment [29] stood at 0.87 µM; in experiment [30], 0.47 µM. One may read the inhibition as the share of the control response that was lost under treatment. Low values mean a response near the control, high ones a response far below the control. Take `C/C=C/c1ccc(OCc2ccc(Cl)cc2)c(OC)c1`: the IC50 in experiment [31] was determined as 6.59 µM. In experiment [32], this compound showed an inhibition at 100 µM of 87.5%.
